Experimental data: patent US7579013B2, “Formulations for coated microprojections containing non-volatile counterions” (Alza Corporation, priority 2003, dated 2009)

Assay: Solubility in water
Type: physicochemical
Conditions: at pH about 5

Which “solubility in water (concentration)” value does the source give for `CC[C@H](C)[C@H](NC(=O)[C@H](CCC(=O)O)NC(=O)[C@H](CO)NC(=O)[C@@H](NC(=O)[C@@H](N)CO)C(C)C)C(=O)N[C@@H](CCC(N)=O)C(=O)N[C@@H](CC(C)C)C(=O)N[C@@H](CCSC)C(=O)N[C@@H](Cc1cnc[nH]1)C(=O)N[C@@H](CC(N)=O)C(=O)N[C@@H](CC(C)C)C(=O)NCC(=O)N[C@@H](CCCCN)C(=O)N[C@@H](Cc1cnc[nH]1)C(=O)N[C@@H](CC(C)C)C(=O)N[C@@H](CC(N)=O)C(=O)N[C@@H](CO)C(=O)N[C@@H](CCSC)C(=O)N[C@@H](CCC(=O)O)C(=O)N[C@@H](CCCN=C(N)N)C(=O)N[C@H](C(=O)N[C@@H](CCC(=O)O)C(=O)N[C@@H](Cc1c[nH]c2ccccc12)C(=O)N[C@@H](CC(C)C)C(=O)N[C@@H](CCCN=C(N)N)C(=O)N[C@@H](CCCCN)C(=O)N[C@@H](CCCCN)C(=O)N[C@@H](CC(C)C)C(=O)N[C@@H](CCC(N)=O)C(=O)N[C@@H](CC(=O)O)C(=O)N[C@H](C(=O)N[C@@H](Cc1cnc[nH]1)C(=O)N[C@@H](CC(N)=O)C(=O)N[C@@H](Cc1ccccc1)C(=O)O)C(C)C)C(C)C` [hPTH(1-34)] here?
Its value is over 20%.
